Experimental data reported in the supplement of paper PMC10307832.

Key:
Test in all cases: relative viability (nuclei count vs DMSO), 5 days (fraction); higher = more cells survive
[1] = compound: C1=CC2=C(C=C(C(=C2N=C1)O)N=NC3=CC4=C(C=C3)C=C(C=C4)S(=O)(=O)O)S(=O)(=O)O + COc1cc2c(Oc3ccc(NC(=O)C4(C(=O)Nc5ccc(F)cc5)CC4)cc3F)ccnc2cc1OCCCN1CCOCC1 [Foretinib] (partner 0.25 µM)
Procedure, shortened: (§1)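 For relative viability, nuclei counts in treated wells were divided by those in vehicle wells. Lung cancer cell lines had been pin-tool dosed in 1536-well plates the day after seeding and cultured for 5 days, then fixed and stained in one step (final 0.05% Triton X-100, 1% formaldehyde, 1 ug/ml Hoechst) and imaged at 4×. Doses were one drug alone or a fixed anchor-drug dose plus five library-drug doses (not always all listed) in √10 steps, and values are duplicate-plate medians.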

AT-7519 + Pictilisib = compound: O=C(NC1CCNCC1)c1n[nH]cc1NC(=O)c1c(Cl)cccc1Cl [AT-7519] + CS(=O)(=O)N1CCN(Cc2cc3nc(-c4cccc5[nH]ncc45)nc(N4CCOCC4)c3s2)CC1 [Pictilisib] (partner 1 µM)
Procedure, shortened: as §1

[2] = compound: C1=CC2=C(C=C(C(=C2N=C1)O)N=NC3=CC4=C(C=C3)C=C(C=C4)S(=O)(=O)O)S(=O)(=O)O + C[C@@H](Oc1cc(-c2cnn(C3CCNCC3)c2)cnc1N)c1c(Cl)ccc(F)c1Cl [Crizotinib] (partner 1 µM)
Procedure, shortened: as §1

[3] = compound: C1=CC2=C(C=C(C(=C2N=C1)O)N=NC3=CC4=C(C=C3)C=C(C=C4)S(=O)(=O)O)S(=O)(=O)O + C[C@]1(O)C[C@@H](c2nc(-c3ccc4ccc(-c5ccccc5)nc4c3)c3c(N)nccn32)C1 [Linsitinib] (partner 1 µM)
Procedure, shortened: as §1

Cell Line	relative viability ([1]; first compound 0.08 µM)	relative viability ([1]; first compound 0.253 µM)	relative viability ([1]; first compound 0.8 µM)	relative viability ([1]; first compound 2.53 µM)	relative viability ([1]; first compound 8 µM)	relative viability (AT-7519 + Pictilisib; first compound 0.01 µM)	relative viability (AT-7519 + Pictilisib; first compound 0.03162 µM)	relative viability (AT-7519 + Pictilisib; first compound 0.3162 µM)	relative viability (AT-7519 + Pictilisib; first compound 1 µM)	relative viability ([2]; first compound 0.08 µM)	relative viability ([2]; first compound 0.253 µM)	relative viability ([2]; first compound 0.8 µM)	relative viability ([2]; first compound 2.53 µM)	relative viability ([2]; first compound 8 µM)	relative viability ([3]; first compound 0.08 µM)	relative viability ([3]; first compound 0.253 µM)	relative viability ([3]; first compound 0.8 µM)	relative viability ([3]; first compound 2.53 µM)	relative viability ([3]; first compound 8 µM)
EKVX	0.818	0.712	0.797	0.861	0.272	0.449	0.385	0.393	0.346	0.997	0.959	1	0.894	0.915	1.15	0.956	0.891	1.01	0.927
NCI-H358	0.778	0.61	0.635	0.651	0.884	0.294	0.308	0.239	0.212	0.582	0.606	0.616	0.618	0.351	0.796	0.682	0.724	0.74	0.336
EPLC-272H	0.779	0.752	0.704	0.646	0.723	0.384	0.311	0.249	0.17	1.14	0.883	0.977	0.978	0.964	1.29	1.07	1.13	1.31	1.37
NCI-H1563	1.04	1.02	0.91	0.996	0.895	0.591	0.612	0.764	0.511	0.875	0.883	0.886	0.851	0.873	1.35	1.16	1.29	1.28	1.21
NCI-H2126	1.22	1.16	1.22	1.25	1.15	0.571	0.516	0.464	0.433	1.09	0.937	0.993	1.03	1.01	0.72	0.688	0.718	0.752	0.731
LXF-289	1.09	0.987	0.998	0.974	0.914	0.819	0.838	0.787	0.746	0.886	0.762	0.792	0.835	0.741	1.05	0.977	0.957	1.02	0.917
NCI-H2009	1.3	1.25	1.18	1.28	0.739	0.914	0.763	0.654	0.247	1.14	1.04	1.09	1.07	1.02	1.21	1.07	1.21	1.2	1.19
NCI-H2405	1.1	1.04	1.06	1.03	1.04	0.461	0.424	0.438	0.293	0.927	0.806	0.808	0.847	0.869	0.909	0.873	0.943	1.04	0.948
NCI-H1755	0.915	0.916	0.869	0.944	0.89	0.444	0.379	0.346	0.297	0.977	0.819	0.858	0.938	0.849	1.08	0.969	0.954	1.05	0.991
HCC-78	0.608	0.571	0.525	0.563	0.3	0.208	0.214	0.146	0.209	0.388	0.336	0.328	0.337	0.203	0.614	0.543	0.496	0.469	0.399
LOU-NH91	0.974	0.946	0.93	0.917	1.01	0.551	0.536	0.516	0.479	0.765	0.704	0.739	0.79	0.717	0.991	0.988	0.957	0.973	0.891
IA-LM	1.3	1.01	1.1	1.18	1.12	0.31	0.328	0.191	0.0278	1.16	0.602	0.822	0.757	0.9	0.822	0.68	0.472	0.755	0.568
NCI-H3122	0.967	0.977	0.925	0.982	0.973	0.625	0.603	0.645	0.102	0.285	0.29	0.275	0.271	0.274	0.998	0.962	0.969	1.01	0.96
HCC-827	1.12	0.955	0.995	1.05	1.08	1.15	0.875	0.819	0.9	0.97	0.886	0.971	0.911	0.998	1.01	0.912	0.934	0.935	0.927
SK-LU-1	1.01	0.768	0.787	0.787	0.889	0.591	0.54	0.5	0.357	1	0.952	0.854	0.923	0.93	1.38	1.13	1.14	1.14	1.03
NCI-H1975	0.912	1.02	0.916	1.04	0.952	0.293	0.253	0.231	0.146	1.1	0.961	1.01	0.994	0.929	1.02	0.913	0.92	0.918	0.908
NCI-H1703	0.334		0.356	0.363	0.302	0.322	0.234	0.241	0.129	0.795	0.717	0.526	0.559	0.735	0.865		0.821	0.371	0.959
